Earlier results in PMC3714282, “Pharmacometabolomics of Response to Sertraline and to Placebo in Major Depressive Disorder – Possible Role for Methoxyindole Pathway” (PLoS ONE, 2013).

Test system: arylalkylamine N-acetyltransferase (AANAT) mRNA
Set-up: method as in PMID 9951564
Conditions: animal studies, chronic administration; cited from earlier work

Q: With CNCCC(Oc1ccc(C(F)(F)F)cc1)c1ccccc1 (stereo not shown) [fluoxetine] as the compound, how does the “brain arylalkylamine N-acetyltransferase (AANAT) mRNA” value read?
A: several-fold increase
